Measurements taken from ChEMBL document CHEMBL1201862, “PubChem BioAssay data set” (2004).
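Where inhibition never reached the appropriate level, the endpoint shown equals the highest concentration tested. Otherwise, values were interpolated linearly from a five-concentration, 48-hour dose response in 96-well plates. At the GI50, growth is halved.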 The source made the active and inactive calls. No stated cut-off is given here; in the data, active = GI50 up to about 1.1 µM and inactive = higher.

Experiments:
Test in all cases: NCI tumour cell line growth inhibition, 48 h
[1] = tested on: A498
[2] = tested on: DMS-114
[3] = tested on: EKVX
[4] = tested on: HCC 2998
[5] = tested on: HL-60
[6] = tested on: HT-29
[7] = tested on: K562
[8] = tested on: LOX IMVI
[9] = tested on: NCI-H226
[10] = tested on: NCI-H23
[11] = tested on: NCI-H460
[12] = tested on: NCI-H522
[13] = tested on: NCI/ADR-RES
[14] = tested on: SK-MEL-5
[15] = tested on: SN12C
[16] = tested on: SW-620
[17] = tested on: 786-0
[18] = tested on: ACHN
[19] = tested on: BT-549
[20] = tested on: DU-145

Row | SMILES | GI50 [1] | GI50 [2] | GI50 [3] | GI50 [4] | GI50 [5] | GI50 [6] | GI50 [7] | GI50 [8] | GI50 [9] | GI50 [10] | GI50 [11] | GI50 [12] | GI50 [13] | GI50 [14] | GI50 [15] | GI50 [16] | GI50 [17] | GI50 [18] | GI50 [19] | GI50 [20]
1 | CCCNC1=C(C)C(=O)C2=C(C1=O)[C@H](COC(N)=O)[C@]1(OC)[C@@H]3N[C@@H]3CN21 | 2.69 µM (inactive) | 4 µM (inactive) | 4.3 µM (inactive) | 3.79 µM (inactive) | 0.394 µM (active) | 9.31 µM (inactive) | 12.1 µM (inactive) | 1.6 µM (inactive) | 6.27 µM (inactive) | 0.861 µM (active) | 0.0661 µM (active) | 2.88 µM (inactive) | > 100 µM (inactive) | 0.65 µM (active) | 2.42 µM (inactive) | 3.73 µM (inactive) |  |  |  | 
2 | Cc1ccc(C(C)(C)C[P+](C)(c2ccccc2)c2ccccc2)cc1 | 34.4 µM (inactive) | 5.25 µM (inactive) | 38.5 µM (inactive) | 9.73 µM (inactive) | 1.75 µM (inactive) | 4.46 µM (inactive) | 5 µM (inactive) | 7.76 µM (inactive) | 15.6 µM (inactive) | 11.7 µM (inactive) | 14 µM (inactive) | 3.4 µM (inactive) | > 100 µM (inactive) | 3.42 µM (inactive) | 20.4 µM (inactive) | 17.4 µM (inactive) |  |  |  | 
3 | NNC(=S)N/N=C(\CCCC(=O)NCCc1ccccc1)CC(=O)c1ccccc1 | > 100 µM (inactive) | > 100 µM (inactive) | > 100 µM (inactive) | > 100 µM (inactive) | > 100 µM (inactive) | > 100 µM (inactive) |  |  |  | > 100 µM (inactive) | > 100 µM (inactive) | > 100 µM (inactive) |  | > 100 µM (inactive) | > 100 µM (inactive) | > 100 µM (inactive) | > 100 µM (inactive) | > 100 µM (inactive) |  | 
4 | COc1ccc2c(c1)c1c(C)c3cnccc3c(C)c1n2CCCN | 0.451 µM (active) | 0.273 µM (active) | 0.307 µM (active) | 0.457 µM (active) |  | 0.117 µM (active) |  | 0.0556 µM (active) |  | 0.216 µM (active) | 0.065 µM (active) | 0.313 µM (active) | 0.273 µM (active) | 0.383 µM (active) | 0.234 µM (active) | 0.0466 µM (active) | 0.0288 µM (active) | 0.124 µM (active) | 1.29 µM (inactive) | 0.0603 µM (active)
5 | CCNC(=O)CCN(C(=O)O)S(=O)(=O)c1ccc(NC(=O)c2ccccc2)cc1 | > 100 µM (inactive) | > 100 µM (inactive) | > 100 µM (inactive) | > 100 µM (inactive) | > 100 µM (inactive) | 50.8 µM (inactive) | 86.3 µM (inactive) | 22.6 µM (inactive) | > 100 µM (inactive) | > 100 µM (inactive) | > 100 µM (inactive) | > 100 µM (inactive) |  | > 100 µM (inactive) | > 100 µM (inactive) | 15.5 µM (inactive) | 10.3 µM (inactive) | > 100 µM (inactive) |  | 
6 | CC(=O)Nc1cccc(/N=N/N(C)C)c1 | > 100 µM (inactive) | > 100 µM (inactive) | > 100 µM (inactive) | > 100 µM (inactive) | > 100 µM (inactive) | > 100 µM (inactive) | 98.4 µM (inactive) | > 100 µM (inactive) | > 100 µM (inactive) | > 100 µM (inactive) | > 100 µM (inactive) | > 100 µM (inactive) | > 100 µM (inactive) | > 100 µM (inactive) | > 100 µM (inactive) | > 100 µM (inactive) |  |  |  | 
7 | OCC(O)COc1ccc(F)cc1 (stereo unspecified) | > 100 µM (inactive) | > 100 µM (inactive) | > 100 µM (inactive) | > 100 µM (inactive) | > 100 µM (inactive) | > 100 µM (inactive) | > 100 µM (inactive) | > 100 µM (inactive) | > 100 µM (inactive) | > 100 µM (inactive) | > 100 µM (inactive) | > 100 µM (inactive) |  | > 100 µM (inactive) | > 100 µM (inactive) | > 100 µM (inactive) | > 100 µM (inactive) | > 100 µM (inactive) |  | 
8 | COc1ccc(OC(C)C(=O)O)c2c(=O)ccccc12 (stereo unspecified) | > 100 µM (inactive) | > 100 µM (inactive) | > 100 µM (inactive) | > 100 µM (inactive) | > 100 µM (inactive) | > 100 µM (inactive) | > 100 µM (inactive) | > 100 µM (inactive) | > 100 µM (inactive) | > 100 µM (inactive) | > 100 µM (inactive) | > 100 µM (inactive) |  | > 100 µM (inactive) | > 100 µM (inactive) | > 100 µM (inactive) | > 100 µM (inactive) | > 100 µM (inactive) |  | 
9 | CCCC(O)C(NC(=O)CCl)C(=O)O (stereo unspecified) | > 100 µM (inactive) | > 100 µM (inactive) | > 100 µM (inactive) | > 100 µM (inactive) | > 100 µM (inactive) | > 100 µM (inactive) | > 100 µM (inactive) | > 100 µM (inactive) | > 100 µM (inactive) | > 100 µM (inactive) | > 100 µM (inactive) | > 100 µM (inactive) | > 100 µM (inactive) | > 100 µM (inactive) | > 100 µM (inactive) | > 100 µM (inactive) |  |  |  | 
10 | CSCCC(NC(=O)C(Cc1ccccc1)NC(=O)CNC(=O)CNC(=O)C(N)Cc1ccc(O)cc1)C(=O)O (stereo unspecified) | > 100 µM (inactive) | > 100 µM (inactive) | > 100 µM (inactive) | > 100 µM (inactive) | > 100 µM (inactive) | > 100 µM (inactive) | > 100 µM (inactive) | > 100 µM (inactive) |  | > 100 µM (inactive) | > 100 µM (inactive) | > 100 µM (inactive) | > 100 µM (inactive) | > 100 µM (inactive) | > 100 µM (inactive) | > 100 µM (inactive) |  |  |  | 
11 | Cc1cccc(=O)c([O-])c1.Cc1cccc(=O)c([O-])c1.[Bi+3].[Cl-] | 16.5 µM (inactive) | 3.3 µM (inactive) | 15.9 µM (inactive) | 11.5 µM (inactive) | 3 µM (inactive) | 11.4 µM (inactive) | 4.46 µM (inactive) | 9.55 µM (inactive) | 18.1 µM (inactive) | 10.9 µM (inactive) | 4.32 µM (inactive) | 2.03 µM (inactive) |  | 11.3 µM (inactive) | 11.8 µM (inactive) | 5.47 µM (inactive) | 13.7 µM (inactive) | 7.31 µM (inactive) |  | 
12 | CN(C)CCCNc1ccc2ncn3c4ccc(O)cc4c(=O)c1c23 | 0.697 µM (active) | 0.334 µM (active) | 4.71 µM (inactive) | 4.43 µM (inactive) | 0.277 µM (active) | 1.3 µM (inactive) | 1.35 µM (inactive) | 0.607 µM (active) | 0.483 µM (active) | 0.716 µM (active) | 0.105 µM (active) | 0.252 µM (active) | 12.4 µM (inactive) | 0.64 µM (active) | 0.5 µM (active) | 0.647 µM (active) | 0.692 µM (active) | 0.158 µM (active) | 17.3 µM (inactive) | 0.638 µM (active)
13 | NC(=O)c1ncn2c1NCC1OC2C(O)C1O (stereo unspecified) | > 100 µM (inactive) | > 100 µM (inactive) | > 100 µM (inactive) | > 100 µM (inactive) | > 100 µM (inactive) | > 100 µM (inactive) | > 100 µM (inactive) | > 100 µM (inactive) | > 100 µM (inactive) | > 100 µM (inactive) |  | > 100 µM (inactive) |  | > 100 µM (inactive) | > 100 µM (inactive) | > 100 µM (inactive) | > 100 µM (inactive) | > 100 µM (inactive) |  | 
14 | COC(=O)C1=C(O)c2cc(OC)c(OC)c(OC)c2[C@H](c2cc(OC)c(OC)c(OC)c2)C1C(=O)OC (stereo partly specified) | 30.1 µM (inactive) | 30.6 µM (inactive) | 55.5 µM (inactive) | 27.6 µM (inactive) | 16.8 µM (inactive) | 22.8 µM (inactive) | 24.5 µM (inactive) | 41.1 µM (inactive) | 49.3 µM (inactive) | 31.2 µM (inactive) | 7.18 µM (inactive) | 13.5 µM (inactive) |  | 12.3 µM (inactive) | 50.8 µM (inactive) | 29 µM (inactive) | 34 µM (inactive) | 46.8 µM (inactive) |  | 
